Results reported in patent US6894003B2, “Enhancement of the activity of carotenoid biosynthesis inhibitor herbicides” (BASF Aktiengesellschaft, priority 2000, dated 2005).

What was measured:
Type in all cases: in vivo
Lolium perenne = test: Greenhouse pre-emergence weed control, ryegrass; conditions: vs untreated check
Excerpt: (§1) Seeds of the monocotyledonous and dicotyledonous test plants are separately mixed with potting soil and planted on top of approximately one inch of soil in separate pint cups. After planting, the cups are subjected to the following treatments:
(§2) Technical TTP (treatment H) is applied as a dispersion in acetone using a single-nozzle overhead track pneumatic sprayer, while granular or powder formulations (treatments I-K) are applied by shaking the solid granules or powder directly and evenly onto the soil surface.
(§3) The treated cups are then placed on greenhouse benches, watered and cared for in accordance with conventional greenhouse procedures. Twenty days after treatment (DAT), the seedling plants are examined, and the % weed control as compared to untreated check is recorded (Table I).

Alopecurus myosuroides = test: Greenhouse pre-emergence weed control, blackgrass; conditions: for Weed Control (20 DAT) ALOMY: vs untreated check
Excerpt: as §1, §2, §3

Galium aparine = test: Greenhouse pre-emergence weed control, Galium; conditions: for Weed Control (20 DAT) GALAP: vs untreated check
Excerpt: as §1, §2, §3

Veronica persica = test: Greenhouse pre-emergence weed control, Veronica; conditions: vs untreated check
Excerpt: as §1, §2, §3

Papaver rhoeas = test: Greenhouse pre-emergence weed control, poppy; conditions: vs untreated check
Excerpt: as §1, §2, §3

[1] = tested on: Matricaria inodora vulgare; test: Greenhouse pre-emergence weed control, Matricaria; conditions: vs untreated check
Excerpt: as §1, §2, §3

[2] = tested on: Hordeum vulgare (variety Mammut); test: Crop phytotoxicity, winter barley (variety Mammut); conditions: assessed visually
Excerpt: as §1, §2
The treated cups are then placed on greenhouse benches, watered and cared for in accordance with conventional greenhouse procedures. […]

[3] = tested on: Triticum aestivum (variety Kanzler); test: Crop phytotoxicity, winter wheat (variety Kanzler); conditions: assessed visually
Excerpt: as §1, §2, §3

Setaria viridis = test: Greenhouse pre-emergence weed control, green foxtail; conditions: vs untreated check
Excerpt: as §1, §2, §3

## FC(F)(F)c1ccc(-c2nccc(Oc3cccc(C(F)(F)F)c3)n2)cc1 [H, 4-(3-trifluoromethylphenoxy)-2-(4-trifluoromethylphenyl)-pyrimidine]
Lolium perenne; 0.060 kg/ha
  Weed Control (20 DAT) LOLPE: 91.5%
Lolium perenne; 0.120 kg/ha
  Weed Control (20 DAT) LOLPE: 98.5%
Lolium perenne; 0.240 kg/ha
  Weed Control (20 DAT) LOLPE: 99.0%
Lolium perenne; 0.480 kg/ha
  Weed Control (20 DAT) LOLPE: 99.0%
Alopecurus myosuroides; 0.060 kg/ha
  Weed Control (20 DAT) ALOMY: 22.5%
Alopecurus myosuroides; 0.120 kg/ha
  Weed Control (20 DAT) ALOMY: 77.5%
Alopecurus myosuroides; 0.240 kg/ha
  Weed Control (20 DAT) ALOMY: 98.5%
Alopecurus myosuroides; 0.480 kg/ha
  Weed Control (20 DAT) ALOMY: 99.0%
Alopecurus myosuroides; greenhouse
  Rate required to control Alopecurus: 240 g/ha
Galium aparine; 0.060 kg/ha
  Weed Control (20 DAT) GALAP: 67.5%
Galium aparine; 0.120 kg/ha
  Weed Control (20 DAT) GALAP: 72.5%
Galium aparine; 0.240 kg/ha
  Weed Control (20 DAT) GALAP: 98.0%
Galium aparine; 0.480 kg/ha
  Weed Control (20 DAT) GALAP: 98.0%
Galium aparine; greenhouse
  Rate required to control Galium: 240 g/ha
Veronica persica; 0.060 kg/ha
  Weed Control (20 DAT) VERPE: 99.5%
Veronica persica; 0.120 kg/ha
  Weed Control (20 DAT) VERPE: 100.0%
Veronica persica; 0.240 kg/ha
  Weed Control (20 DAT) VERPE: 100.0%
Veronica persica; 0.480 kg/ha
  Weed Control (20 DAT) VERPE: 100.0%
Papaver rhoeas; 0.060 kg/ha
  Weed Control (20 DAT) PAPRH: 99.5%
Papaver rhoeas; 0.120 kg/ha
  Weed Control (20 DAT) PAPRH: 99.5%
Papaver rhoeas; 0.240 kg/ha
  Weed Control (20 DAT) PAPRH: 100.0%
Papaver rhoeas; 0.480 kg/ha
  Weed Control (20 DAT) PAPRH: 100.0%
[1]; 0.060 kg/ha
  Weed Control (20 DAT) MATIN: 98.5%
[1]; 0.120 kg/ha
  Weed Control (20 DAT) MATIN: 99.0%
[1]; 0.240 kg/ha
  Weed Control (20 DAT) MATIN: 99.0%
[1]; 0.480 kg/ha
  Weed Control (20 DAT) MATIN: 100.0%
[2]; 0.060 kg/ha
  Crop Phytotoxicity 11 DAT HORVWM: 20.0
  Crop Phytotoxicity 20 DAT HORVWM: 15.0
[2]; 0.120 kg/ha
  Crop Phytotoxicity 11 DAT HORVWM: 40.0
  Crop Phytotoxicity 20 DAT HORVWM: 25.0
[2]; 0.240 kg/ha
  Crop Phytotoxicity 11 DAT HORVWM: 42.5
  Crop Phytotoxicity 20 DAT HORVWM: 40.0
[2]; 0.480 kg/ha
  Crop Phytotoxicity 11 DAT HORVWM: 47.5
  Crop Phytotoxicity 20 DAT HORVWM: 45.0
[3]; 0.060 kg/ha
  Crop Phytotoxicity 11 DAT TRZAWK: 1.0
  Crop Phytotoxicity 20 DAT TRZAWK: 0.5
[3]; 0.120 kg/ha
  Crop Phytotoxicity 11 DAT TRZAWK: 2.5
  Crop Phytotoxicity 20 DAT TRZAWK: 1.0
[3]; 0.240 kg/ha
  Crop Phytotoxicity 11 DAT TRZAWK: 6.5
  Crop Phytotoxicity 20 DAT TRZAWK: 4.5
[3]; 0.480 kg/ha
  Crop Phytotoxicity 11 DAT TRZAWK: 14.0
  Crop Phytotoxicity 20 DAT TRZAWK: 10.0
Setaria viridis; 0.060 kg/ha
  Weed Control (20 DAT) SETVI: 96.5%
Setaria viridis; 0.120 kg/ha
  Weed Control (20 DAT) SETVI: 100.0%
Setaria viridis; 0.240 kg/ha
  Weed Control (20 DAT) SETVI: 100.0%
Setaria viridis; 0.480 kg/ha
  Weed Control (20 DAT) SETVI: 100.0%
